Measurements reported in patent publication US20230226040A1, “COMBINATION THERAPY COMPRISING AN FGFR INHIBITOR AND A KRAS INHIBITOR” (Incyte Corporation, priority 2021, published 2023).
Values joined by “and” are separate entries in the source; they are usually repeats but may differ in a detail not shown here. Equal entries are not always repeated.

Key:
H358 = experiment: 5-day Cell Titer Glo combination matrix, Bliss score; type: cell-based; conditions: H358 (Lung, Epithelial); KRAS inhibitor in combination with pemigatinib; 5 days
Method: (§2) Cells were seeded in RPMI medium with 10% HI FBS at a density of 500 cells/well in Greiner, white, clear bottom, 384-well tissue culture treated plates containing 10×10 combination matrices of compound. Plates were incubated at 37° C., 5% CO2 for 5 days. On day 5, Cell Titer Glo reagent was added to the plates and ATP luminescence was detected using a Pherastar FSX reader. The synergy score for the combination effect was calculated using a Bliss score model where the Bliss score=Yab-(Ya+Yb−(YaYb))×100, where Ya and Yb are the monotherapies. Bliss scores >20 are strongly synergistic and a higher Bliss scores indicates a higher level of synergism.
(§3) Cells were seeded in RPMI medium with 10% HI FBS at a density of 500 cells/well in Greiner, white, clear bottom, 384-well tissue culture treated plates containing 10×10 combination matrices of compound. Plates were incubated at 37° C., 5% CO2 for 5 days. On day 5, Cell Titer Glo reagent was added to the plates and ATP luminescence was detected using a Pherastar FSX reader. Synergy score for the combination effect is calculated using a Bliss score model where the Bliss score=Yab−(Ya+Yb−(YaYb))×100, where Ya and Yb are the monotherapies. Bliss scores >20 are strongly synergistic and a higher Bliss scores indicates a higher level of synergism.
(§4) Cells were seeded in RPMI medium with 10% HI FBS at a density of 500 cells/well in Greiner, white, clear bottom, 384-well tissue culture treated plates containing 10×10 combination matrices of compound. Plates were incubated at 37° C., 5% CO2 for 5 days. On day 5, Cell Titer Glo reagent was added to the plates and ATP luminescence was detected using a Pherastar FSX reader. The synergy score for the combination effect was calculated using a Bliss score model where the Bliss score=Yab−(Ya+Yb−(YaYb))×100, where Ya and Yb are the monotherapies. Bliss scores >20 are strongly synergistic and a higher Bliss scores indicates a higher level of synergism.

[1] = tested on: LU99 lung cancer xenograft; experiment: LU99 xenograft model, tumor growth inhibition; type: in vivo; conditions: NCr nude mice; AMG510 20 mg/kg, pemigatinib 0.3 mg/kg, alone or combined; oral QD, 30 days; last day of treatment
Method: The in vivo effect of combining the FGFR1 inhibitor pemigatinib plus the KRAS G12C inhibitor AMG510 was assessed in the LU99 lung cancer model (JCRB0080, JCRB) xenograft model (FIG. 3) in 6 to 8 week old female NCr nude mice (Taconic). Pemigatinib and AMG510 were suspended in 5% N,N-dimethyl acetamide (DMAC)+50 mM Citrate buffer (pH 3.0) in 0.5% methyl cellulose for oral administration. Briefly, mice were inoculated in the left flank with 1×10^7 LU99 cells re-suspended in a PBS and matrigel (Corning Life Sciences, Tewksbury, Mass) solution at 1:1. On Day 7, mice were randomized into 4 groups of 10 mice at approximate mean volume (˜212 mm^3). […] Tumor growth inhibition was calculated using the formula (1−(VT/VC))×100, where VT is the tumor volume of the treatment group on the last day of treatment, and Vc is the tumor volume of the control group on the last day of treatment. […] Statistics were determined using One-Way ANOVA.
Briefly, mice were inoculated in the left flank with 1×10^7LU99 cells re-suspended in a PBS and matrigel (Corning Life Sciences, Tewksbury, Mass) solution at 1:1. […] TGI was calculated using the formula (1−(VT/VC))×100, where VT is the tumor volume of the treatment group on the last day of treatment, and VC is the tumor volume of the control group on the last day of treatment. […]

Calu-1 = experiment: 5-day Cell Titer Glo combination matrix, Bliss score; type: cell-based; conditions: Calu-1 (Lung, Mesenchymal); KRAS inhibitor in combination with pemigatinib; 5 days
Method: as §2

HCC-44 = experiment: as above; type: cell-based; conditions: HCC-44 (Lung, Mesenchymal); KRAS inhibitor in combination with pemigatinib; 5 days
Method: as §2, §4

pFRS2a [2] = experiment: Western blot of pFRS2a in LU99 cell lysate (90 hours treatment); type: cell-based; conditions: LU99 cells; 50 nM KRAS G12C inhibitor alone
Description: FGFR1 and downstream activation marker pFRS2a protein levels were examined in indicated cell lines, as well as markers for epithelial-like cells (E-cadherin) and mesenchymal-like cells (Vimentin).

SW-837 = experiment: 5-day Cell Titer Glo combination matrix, Bliss score; type: cell-based; conditions: SW-837 (CRC, Epithelial); KRAS inhibitor in combination with pemigatinib; 5 days
Method: as §2, §4

H1792 = experiment: as above; type: cell-based; conditions: H1792 (Lung, Mesenchymal); KRAS inhibitor in combination with pemigatinib; 5 days
Method: as §2, §3, §4

SW-1573 = experiment: as above; type: cell-based; conditions: SW-1573 (Lung, Mesenchymal); KRAS inhibitor in combination with pemigatinib; 5 days
Method: as §2, §3, §4

[3] = tested on: MiaPaca2 KRAS G12C resistant clone 23; experiment: 5-day Cell Titer Glo viability and Bliss score; type: cell-based; conditions: 5-day CTG
Method: (§1) For G12C resistant clone generation, MiaPaca2 parent cells were cultured with increasing concentrations of AMG510 (up to 1μM) over time. The viable cells were re-fed fresh media containing AMG510 weekly. Once the AMG510 resistant cells were growing at normal rates in the presence of 1μM AMG510, they were cloned by limiting dilution. Eight clones were selected for continued passage and further experiments.

[4] = tested on: MiaPaca2 KRAS G12C resistant clone 7; experiment: 5-day Cell Titer Glo viability and Bliss score; type: cell-based; conditions: 5-day CTG
Method: as §1

[5] = tested on: MiaPaca2 KRAS G12C resistant clone 28; experiment: 5-day Cell Titer Glo viability and Bliss score; type: cell-based; conditions: 5-day CTG
Method: as §1

[6] = tested on: MiaPaca2 KRAS G12C resistant clone 11; experiment: 5-day Cell Titer Glo viability and Bliss score; type: cell-based; conditions: CLONE 11, 5-day CTG
Method: as §1

LU99 cells = experiment: siRNA FGFR knockdown plus KRAS G12C inhibitor, Cell Titer Glo proliferation; type: cell-based; conditions: 120 h
Method: Knockdown efficiency was assessed by Western blot and its effect was measured by cell proliferation inhibition.
The lyophilized siRNA pools or individuals (Dharmacon ON-TARGET plus siRNA from Horizon Discovery) were reconstituted by combining 1× siRNA buffer (200 μL) with lyophilized siRNA (20 nmol); or combining 1× siRNA buffer (100 μL) with lyophilized siRNA (10 nmol). Dharmafect Reagent 1 was prepared at a 1:200 dilution in 1X siRNA buffer. One tube of diluted reagent was prepared for each siRNA dilution. To each tube, the appropriate siRNA was added to Dharmafect Reagent 1 at a 1:400 dilution. The prepared siRNA reagent ([…]) was added to the appropriate number of wells on a 96-well clear bottom Greiner plate and incubated at room temperature for 30 min.
For plating in 96-well pates, 2000 LU99 cells per well in 100 μL of medium were prepared. The prepared cells (100 μL per well) were added to each well of the 96-well plate and incubated at 48 h.
Compound plates were prepared with a compound starting concentration of 5 mM in a 3-fold dilution. Following 48 h transfection incubation, the appropriate compounds were added to the 96-well plate at a final starting concentration of 5 μM in 3-fold dilution (11 point dose response curve). After addition of the compounds, the 96-well plates were incubated at 37° C. for 120 h. After this time, Cell Titer Glo reagent is reconstituted and 100 μL of reagent was added per well. The plates were tapped gently and luminescence was read on a Pherastar microplate reader.

pFRS2a [7] = experiment: Western blot of pFRS2a in LU99 cells (24 hours treatment, with or without rhFGF); type: cell-based; conditions: 100 nM KRAS G12C inhibitor, with or without rhFGF stimulation
Method: LU99 cells were treated with 100 nM of Compound 2, pemigatinib, Compound 1, or indication combination for 24 hours, and with or without lng/ml recombinant human FGF (rhFGF) before harvesting the lysate.
Cells were seeded in Corning 6-well tissue culture treated plates in RPMI medium with 10% FBS at 6×10^5 cells/well. After 48 hours, cells were or treated with indicated compounds for 24 hours at 37° C., 5% CO2. rhFGF—basic (R&D systems 233-FB) was added at 1 nG/ml for 15 minutes at the end of the experiment as indicated. The cells were washed with PBS and lysed with 1x lysis buffer (Cell Signaling #9803) with protease and phosphatase inhibitors. Twenty-five μg of total protein lysates was subjected to SDS-PAGE and immunoblot analysis using the following Cell Signaling antibodies: pERK (#4370) phospho-FRS2a (#3861) and beta-Actin (#12620).
Cells were seeded in Corning 6-well tissue culture treated plates in RPMI medium with 10% FBS at 6x10^5 cells/well. After 48 hours, cells were or treated with indicated compounds for 24 hours at 37° C., 5% CO2. rhFGF—basic (R&D systems 233-FB) was added at 1 nG/ml for 15 minutes at the end of the experiment as indicated. The cells were washed with PBS and lysed with 1× lysis buffer (Cell Signaling #9803) with protease and phosphatase inhibitors. […]

[8] = in the absence of FGFR1, FGFR2 or FGFR3

## C=CC(=O)N1CCN(c2nc(=O)n(-c3c(C)ccnc3C(C)C)c3nc(-c4c(O)cccc4F)c(F)cc23)[C@@H](C)C1 [AMG-510]
H358
  Avg. Bliss Score: 3.7
[1]
  TGI (tumor growth inhibition): 66%
Calu-1
  Avg. Bliss Score: 11.2
HCC-44
  Avg. Bliss Score: 4.4
pFRS2a [2]
  protein level of pFRS2a: elevated the protein level of pFRS2a
SW-837
  Avg. Bliss Score: −7.7
H1792
  Avg. Bliss Score: 26.7
SW-1573
  Avg. Bliss Score: 25.9
[3]; G12C i alone (Compound 1 arm)
  % viability, G12C i 111 nM: 83.9%
[3]; G12C i alone (Pemi arm)
  % viability, G12C i 111 nM: 90.9%
[4]; Average, G12C i alone (Compound 1 arm)
  % viability, G12C i 111 nM: 77.6%
[4]; Average, G12C i alone (Pemi arm)
  % viability, G12C i 111 nM: 77.8%
[4]; G12C i alone (Compound 1 arm), single experiments
  % viability, G12C i 111 nM: 67.1% and 88%
[4]; G12C i alone (Pemi arm), single experiments
  % viability, G12C i 111 nM: 69.6% and 90% and 73.7%
[5]; G12C i alone (Compound 1 arm)
  % viability, G12C i 111 nM: 77.5%
[5]; G12C i alone (Pemi arm)
  % viability, G12C i 111 nM: 69.6%
[6]; G12C i alone (Compound 1 arm)
  % viability, G12C i 111 nM: 63%
[6]; G12C i alone (Pemi arm)
  % viability, G12C i 111 nM: 67%
LU99 cells; [8]
  inhibition of LU99 cell proliferation after siRNA knockdown: higher inhibition in proliferation
LU99 cells; in the absence of FGFR1 or FGFR4
  inhibition of LU99 cell proliferation after siRNA knockdown: higher inhibition in proliferation

## COC/C=C/C(=O)N1CC[C@H](n2nnc3c(N4CC(C)(N(C)C)C4)nc4c(F)c(-c5ccc(F)c6cccnc56)c(C(F)(F)F)cc4c32)C[C@H]1CC#N [Compound 2, 2-((2S,4S)-4-(4-(3-(dimethylamino)-3-methylazetidin-1-yl)-6-fluoro-7-(5-fluoroquinolin-8-yl)-8-(trifluoromethyl)-1H-[1,2,3]triazolo[4,5-c]quinolin-1-yl)-1-((E)-4-methoxybut-2-enoyl)piperidin-2-yl)acetonitrile]
pFRS2a [2]
  protein level of pFRS2a: elevated the protein level of pFRS2a
pFRS2a [7]
  pFRS2a signaling: elevated
LU99 cells; all FGFR isoforms knocked down, in particular in the absence of FGFR1 and FGFR2
  inhibition of LU99 cell proliferation after siRNA knockdown: higher inhibition in proliferation
LU99 cells; [8]
  inhibition of LU99 cell proliferation after siRNA knockdown: higher inhibition in proliferation
